In one test the test system is HBsAg. Description: HBsAg assay (CLIA) in HepG2.2.15 cells. In kind it is cell-based, HBV. The note with it: Hepatitis B virus, HepG2.2.15, read-out: IC50 (HBsAg assay). As to the method: (§1) HepG2.2.15 cells (Acs et al. Proc Natl Acad Sci USA, 84, (1987), 4641-4), a constitutively HBV-expressing cell line were cultured in DMEM+Glutamax-I medium (Invitrogen, Carlsbad, Calif., USA), supplemented with 10% fetal bovine serum (Invitrogen) and G418 (Invitrogen) at a final concentration of 200 mg/L and maintained in 5% CO2 at 37° C.
HepG2.2.15 cells were seeded in duplicate into white, 96-well plates at 1.5×10^4 cells/well. The cells were treated with a three-fold serial dilution series of the compounds in DMSO. The final DMSO concentration in all wells was 1% and DMSO was used as no drug control.
The HBsAg chemiluminescence immunoassay (CLIA) kit (Autobio Diagnostics Co., Zhengzhou, China, Catalog number: CL0310-2) was used to measure the levels of secreted HBV antigens semi-quantitatively. For the detection 50 μL/well culture supernatant was used and HBsAg was quantified using HBsAg chemiluminescence immunoassay (CLIA) kit (Autobio Diagnostics Co., Zhengzhou, China, Catalog number: CL0310-2), 50 μL of the supernatant was transferred to the CLIA assay plate and 50 μL of enzyme conjugate reagent was added into each well. The plates were sealed and gently agitated for 1 hour at room temperature. The supernatant-enzyme-mixture was discarded and wells were washed 6 times with 300 μL of PBS. The residual liquid was removed by plating the CLIA plate […] on absorbent tissue paper. 25 μL of substrates A and B were added to each well. Luminance was measured using a luminometer (Mithras LB 940 Multimode Microplate Reader) after 10 minutes incubation. Dose-response curves were generated and the IC50 value was extrapolated by using the E-WorkBook Suite (ID Business Solutions Ltd., Guildford, UK). The IC50 was defined as the compound concentration (or conditioned media log dilution) at which HBsAg secretion was reduced by 50% compared to the no drug control.

For the next test, the system named is HBV DNA. The experiment in a line: HBV DNA assay (real-time qPCR/TaqMan) in HepG2.2.15 cells. The conditions noted are these: Hepatitis B virus, 144 h, extracellular HBV DNA in supernatant, six days after initial administration, qPCR, read-out: IC50 (Anti HBV DNA production activity). In kind it is cell-based. As to the method: as §1
The assay employs real-time qPCR (TaqMan) to directly measure extracellular HBV DNA copy number in the cell supernatant, HepG2.2.15 cells were plated in 96-well microtiter plates before treatment with complete medium (DMEM, Glutamax, 10% FBS, 1% Penicillin/Streptomycin, 250 μg/mL Genetycin, final DMSO concentration is 1%). Only the interior wells were utilized to reduce “edge effects” observed during cell culture, the exterior wells were filled with complete medium to help minimize sample evaporation. The HepG2.2.15 cells were treated 1 h later with various concentrations of a test compound in duplicate (top concentration used at 5 μM, 2 μM or 0.5 μM according to the HBsAg IC50 observed, with ⅓ successive dilutions (total of 10 dilutions). Six days following the initial administration of the test compound, the cell culture supernatant was collected; DNA extraction was performed by automated system (Magnapure) and then used in a real-time qPCR/TaqMan assay to determine HBV DNA copy numbers. Antiviral activity was calculated from the reduction in HBV DNA levels (IC50).
On the technique in general: In qPCR the cycle at which signal appears reflects the starting amount.

As usually defined, the IC50 is the midpoint of a concentration-inhibition curve.

Turning to `Cc1c(C(=O)N2Cc3nc(-c4ncccn4)ncc3C2C)oc2ccccc12` (centres unmarked) [Example 21, (3-Methylbenzofuran-2-yl)-(5-methyl-2-pyrimidin-2-yl-5,7-dihydropyrrolo[3,4-d]pyrimidin-6-yl)methanone], the IC50 in the test with HBsAg turned out to be 0.219 µM; in the test with HBV DNA, 0.0262 µM.
The matching figures for `CC1c2cnc(-c3ncccn3)nc2CN1C(=O)c1nn(C)c2ccccc12` (centres unmarked) [Example 12, (1-Methylindazol-3-yl)-(5-methyl-2-pyrimidin-2-yl-5,7-dihydropyrrolo[3,4-d]pyrimidin-6-yl)methanone]: 0.158 µM and 0.0056 µM.
On the same counts, the results for `COc1cc(F)nc(N2Cc3nc(-c4ncccn4)ncc3C2C)c1` (centres unmarked) [Example 30, 6-(6-Fluoro-4-methoxy-2-pyridyl)-5-methyl-2-pyrimidin-2-yl-5,7-dihydropyrrolo[3,4-d]pyrimidine] are 0.05 µM and 0.0065 µM.
Turning to `Cc1nc(C(=O)N2Cc3nc(-c4ncccn4)ncc3C2C)sc1C` (centres unmarked) [Example 10, (4,5-Dimethylthiazol-2-yl)-(5-methyl-2-pyrimidin-2-yl-5,7-dihydropyrrolo[3,4-d]pyrimidin-6-yl)methanone], the IC50 in the test on HBsAg was determined as 0.282 µM; with HBV DNA, 0.0676 µM.

(Values after patent US11225482B2, “Dihydropyrrolopyrimidines for the treatment and prophylaxis of hepatitis B virus infection” (Hoffmann-La Roche Inc., priority 2017, dated 2022).)
